In ChEMBL document CHEMBL3797159, “The discovery and the structural basis of an imidazo[4,5-b]pyridine-based p21-activated kinase 4 inhibitor” (Bioorg Med Chem Lett, 2016):
pIC50: −log10 of the molar value. Calls of active or inactive are those of the source. The rule behind the calls is not given here.

Tests used:
[1] = target: T1, Serine/threonine-protein kinase PAK 4 (Homo sapiens, UniProt O96013); assay: Binding affinity to recombinant human N-terminal His6-tagged PAK4 kinase domain (300 to 591 residues) expressed in Escherichia coli BL21(DE3) cells at 50 uM by circular dichroism analysis
Target sequence in this assay (O96013 whole entry, looked up, the tested form may be a part): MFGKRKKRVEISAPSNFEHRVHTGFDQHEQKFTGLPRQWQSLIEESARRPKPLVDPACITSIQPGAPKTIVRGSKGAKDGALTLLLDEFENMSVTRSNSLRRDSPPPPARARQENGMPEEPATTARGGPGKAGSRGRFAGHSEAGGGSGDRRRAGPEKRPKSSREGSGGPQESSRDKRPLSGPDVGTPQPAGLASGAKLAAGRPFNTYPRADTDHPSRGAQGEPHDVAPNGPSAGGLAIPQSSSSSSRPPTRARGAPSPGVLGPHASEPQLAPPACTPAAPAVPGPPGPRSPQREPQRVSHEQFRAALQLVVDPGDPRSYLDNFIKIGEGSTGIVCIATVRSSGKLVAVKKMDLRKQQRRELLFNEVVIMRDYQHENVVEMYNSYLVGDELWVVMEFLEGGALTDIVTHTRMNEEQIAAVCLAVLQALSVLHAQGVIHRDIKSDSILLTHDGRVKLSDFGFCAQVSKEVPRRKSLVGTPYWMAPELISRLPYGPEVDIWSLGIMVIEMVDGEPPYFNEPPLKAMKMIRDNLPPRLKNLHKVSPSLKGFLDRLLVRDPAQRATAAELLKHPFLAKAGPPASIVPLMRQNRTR

[2] = target: T1, Serine/threonine-protein kinase PAK 4; assay: Inhibition of human PAK4 using myelin basic protein as substrate incubated for 40 mins by scintillation counting method in presence of gamma[33P]ATP
Target sequence in this assay (O96013 whole entry, the tested form may be a part): as the sequence (O96013 whole entry, looked up, the tested form may be a part) above

[3] = Solubility of compound; type: physicochemical
[4] = target: Aurora kinase B (Homo sapiens) (UniProt Q96GD4); assay: Inhibition of human recombinant Aurora-B expressed in sf9 cells using kemptide as substrate by radiometric assay in presence of gamma[32P]ATP
Sequence of Aurora kinase B (Homo sapiens) (Q96GD4 whole entry): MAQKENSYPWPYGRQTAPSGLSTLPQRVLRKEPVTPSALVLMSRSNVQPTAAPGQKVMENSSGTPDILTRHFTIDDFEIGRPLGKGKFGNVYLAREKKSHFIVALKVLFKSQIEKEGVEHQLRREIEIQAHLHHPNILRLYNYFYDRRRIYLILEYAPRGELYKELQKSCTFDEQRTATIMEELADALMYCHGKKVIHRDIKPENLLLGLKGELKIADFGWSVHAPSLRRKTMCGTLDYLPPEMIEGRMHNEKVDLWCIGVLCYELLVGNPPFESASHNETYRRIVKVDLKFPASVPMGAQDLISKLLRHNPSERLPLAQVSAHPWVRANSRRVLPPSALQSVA

[5] = target: T2, Aurora kinase C (Homo sapiens) (UniProt Q9UQB9); assay: Inhibition of human Aurora-C by radiometric assay
T2 sequence (whole entry): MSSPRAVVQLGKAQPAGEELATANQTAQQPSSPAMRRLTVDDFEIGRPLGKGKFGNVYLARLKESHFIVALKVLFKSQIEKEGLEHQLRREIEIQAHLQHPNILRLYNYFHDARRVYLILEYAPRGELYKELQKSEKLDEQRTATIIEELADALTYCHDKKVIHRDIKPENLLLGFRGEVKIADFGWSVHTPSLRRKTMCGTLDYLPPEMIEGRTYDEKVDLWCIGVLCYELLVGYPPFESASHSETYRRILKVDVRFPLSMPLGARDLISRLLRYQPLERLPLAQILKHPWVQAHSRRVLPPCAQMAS

[6] = target: CDK4/Cyclin D3 (Homo sapiens) (UniProt P11802+P30281); assay: Inhibition of human recombinant CDK4/Cyclin D3 expressed in sf21 cells using Rb (773 to 928 residues) as substrate by radiometric assay in presence of gamma[32P]ATP
[7] = target: DNA-dependent protein kinase catalytic subunit (Homo sapiens) (UniProt P78527); assay: Inhibition of human DNA-PK by radiometric assay
Sequence of DNA-dependent protein kinase catalytic subunit (Homo sapiens) (P78527 whole entry): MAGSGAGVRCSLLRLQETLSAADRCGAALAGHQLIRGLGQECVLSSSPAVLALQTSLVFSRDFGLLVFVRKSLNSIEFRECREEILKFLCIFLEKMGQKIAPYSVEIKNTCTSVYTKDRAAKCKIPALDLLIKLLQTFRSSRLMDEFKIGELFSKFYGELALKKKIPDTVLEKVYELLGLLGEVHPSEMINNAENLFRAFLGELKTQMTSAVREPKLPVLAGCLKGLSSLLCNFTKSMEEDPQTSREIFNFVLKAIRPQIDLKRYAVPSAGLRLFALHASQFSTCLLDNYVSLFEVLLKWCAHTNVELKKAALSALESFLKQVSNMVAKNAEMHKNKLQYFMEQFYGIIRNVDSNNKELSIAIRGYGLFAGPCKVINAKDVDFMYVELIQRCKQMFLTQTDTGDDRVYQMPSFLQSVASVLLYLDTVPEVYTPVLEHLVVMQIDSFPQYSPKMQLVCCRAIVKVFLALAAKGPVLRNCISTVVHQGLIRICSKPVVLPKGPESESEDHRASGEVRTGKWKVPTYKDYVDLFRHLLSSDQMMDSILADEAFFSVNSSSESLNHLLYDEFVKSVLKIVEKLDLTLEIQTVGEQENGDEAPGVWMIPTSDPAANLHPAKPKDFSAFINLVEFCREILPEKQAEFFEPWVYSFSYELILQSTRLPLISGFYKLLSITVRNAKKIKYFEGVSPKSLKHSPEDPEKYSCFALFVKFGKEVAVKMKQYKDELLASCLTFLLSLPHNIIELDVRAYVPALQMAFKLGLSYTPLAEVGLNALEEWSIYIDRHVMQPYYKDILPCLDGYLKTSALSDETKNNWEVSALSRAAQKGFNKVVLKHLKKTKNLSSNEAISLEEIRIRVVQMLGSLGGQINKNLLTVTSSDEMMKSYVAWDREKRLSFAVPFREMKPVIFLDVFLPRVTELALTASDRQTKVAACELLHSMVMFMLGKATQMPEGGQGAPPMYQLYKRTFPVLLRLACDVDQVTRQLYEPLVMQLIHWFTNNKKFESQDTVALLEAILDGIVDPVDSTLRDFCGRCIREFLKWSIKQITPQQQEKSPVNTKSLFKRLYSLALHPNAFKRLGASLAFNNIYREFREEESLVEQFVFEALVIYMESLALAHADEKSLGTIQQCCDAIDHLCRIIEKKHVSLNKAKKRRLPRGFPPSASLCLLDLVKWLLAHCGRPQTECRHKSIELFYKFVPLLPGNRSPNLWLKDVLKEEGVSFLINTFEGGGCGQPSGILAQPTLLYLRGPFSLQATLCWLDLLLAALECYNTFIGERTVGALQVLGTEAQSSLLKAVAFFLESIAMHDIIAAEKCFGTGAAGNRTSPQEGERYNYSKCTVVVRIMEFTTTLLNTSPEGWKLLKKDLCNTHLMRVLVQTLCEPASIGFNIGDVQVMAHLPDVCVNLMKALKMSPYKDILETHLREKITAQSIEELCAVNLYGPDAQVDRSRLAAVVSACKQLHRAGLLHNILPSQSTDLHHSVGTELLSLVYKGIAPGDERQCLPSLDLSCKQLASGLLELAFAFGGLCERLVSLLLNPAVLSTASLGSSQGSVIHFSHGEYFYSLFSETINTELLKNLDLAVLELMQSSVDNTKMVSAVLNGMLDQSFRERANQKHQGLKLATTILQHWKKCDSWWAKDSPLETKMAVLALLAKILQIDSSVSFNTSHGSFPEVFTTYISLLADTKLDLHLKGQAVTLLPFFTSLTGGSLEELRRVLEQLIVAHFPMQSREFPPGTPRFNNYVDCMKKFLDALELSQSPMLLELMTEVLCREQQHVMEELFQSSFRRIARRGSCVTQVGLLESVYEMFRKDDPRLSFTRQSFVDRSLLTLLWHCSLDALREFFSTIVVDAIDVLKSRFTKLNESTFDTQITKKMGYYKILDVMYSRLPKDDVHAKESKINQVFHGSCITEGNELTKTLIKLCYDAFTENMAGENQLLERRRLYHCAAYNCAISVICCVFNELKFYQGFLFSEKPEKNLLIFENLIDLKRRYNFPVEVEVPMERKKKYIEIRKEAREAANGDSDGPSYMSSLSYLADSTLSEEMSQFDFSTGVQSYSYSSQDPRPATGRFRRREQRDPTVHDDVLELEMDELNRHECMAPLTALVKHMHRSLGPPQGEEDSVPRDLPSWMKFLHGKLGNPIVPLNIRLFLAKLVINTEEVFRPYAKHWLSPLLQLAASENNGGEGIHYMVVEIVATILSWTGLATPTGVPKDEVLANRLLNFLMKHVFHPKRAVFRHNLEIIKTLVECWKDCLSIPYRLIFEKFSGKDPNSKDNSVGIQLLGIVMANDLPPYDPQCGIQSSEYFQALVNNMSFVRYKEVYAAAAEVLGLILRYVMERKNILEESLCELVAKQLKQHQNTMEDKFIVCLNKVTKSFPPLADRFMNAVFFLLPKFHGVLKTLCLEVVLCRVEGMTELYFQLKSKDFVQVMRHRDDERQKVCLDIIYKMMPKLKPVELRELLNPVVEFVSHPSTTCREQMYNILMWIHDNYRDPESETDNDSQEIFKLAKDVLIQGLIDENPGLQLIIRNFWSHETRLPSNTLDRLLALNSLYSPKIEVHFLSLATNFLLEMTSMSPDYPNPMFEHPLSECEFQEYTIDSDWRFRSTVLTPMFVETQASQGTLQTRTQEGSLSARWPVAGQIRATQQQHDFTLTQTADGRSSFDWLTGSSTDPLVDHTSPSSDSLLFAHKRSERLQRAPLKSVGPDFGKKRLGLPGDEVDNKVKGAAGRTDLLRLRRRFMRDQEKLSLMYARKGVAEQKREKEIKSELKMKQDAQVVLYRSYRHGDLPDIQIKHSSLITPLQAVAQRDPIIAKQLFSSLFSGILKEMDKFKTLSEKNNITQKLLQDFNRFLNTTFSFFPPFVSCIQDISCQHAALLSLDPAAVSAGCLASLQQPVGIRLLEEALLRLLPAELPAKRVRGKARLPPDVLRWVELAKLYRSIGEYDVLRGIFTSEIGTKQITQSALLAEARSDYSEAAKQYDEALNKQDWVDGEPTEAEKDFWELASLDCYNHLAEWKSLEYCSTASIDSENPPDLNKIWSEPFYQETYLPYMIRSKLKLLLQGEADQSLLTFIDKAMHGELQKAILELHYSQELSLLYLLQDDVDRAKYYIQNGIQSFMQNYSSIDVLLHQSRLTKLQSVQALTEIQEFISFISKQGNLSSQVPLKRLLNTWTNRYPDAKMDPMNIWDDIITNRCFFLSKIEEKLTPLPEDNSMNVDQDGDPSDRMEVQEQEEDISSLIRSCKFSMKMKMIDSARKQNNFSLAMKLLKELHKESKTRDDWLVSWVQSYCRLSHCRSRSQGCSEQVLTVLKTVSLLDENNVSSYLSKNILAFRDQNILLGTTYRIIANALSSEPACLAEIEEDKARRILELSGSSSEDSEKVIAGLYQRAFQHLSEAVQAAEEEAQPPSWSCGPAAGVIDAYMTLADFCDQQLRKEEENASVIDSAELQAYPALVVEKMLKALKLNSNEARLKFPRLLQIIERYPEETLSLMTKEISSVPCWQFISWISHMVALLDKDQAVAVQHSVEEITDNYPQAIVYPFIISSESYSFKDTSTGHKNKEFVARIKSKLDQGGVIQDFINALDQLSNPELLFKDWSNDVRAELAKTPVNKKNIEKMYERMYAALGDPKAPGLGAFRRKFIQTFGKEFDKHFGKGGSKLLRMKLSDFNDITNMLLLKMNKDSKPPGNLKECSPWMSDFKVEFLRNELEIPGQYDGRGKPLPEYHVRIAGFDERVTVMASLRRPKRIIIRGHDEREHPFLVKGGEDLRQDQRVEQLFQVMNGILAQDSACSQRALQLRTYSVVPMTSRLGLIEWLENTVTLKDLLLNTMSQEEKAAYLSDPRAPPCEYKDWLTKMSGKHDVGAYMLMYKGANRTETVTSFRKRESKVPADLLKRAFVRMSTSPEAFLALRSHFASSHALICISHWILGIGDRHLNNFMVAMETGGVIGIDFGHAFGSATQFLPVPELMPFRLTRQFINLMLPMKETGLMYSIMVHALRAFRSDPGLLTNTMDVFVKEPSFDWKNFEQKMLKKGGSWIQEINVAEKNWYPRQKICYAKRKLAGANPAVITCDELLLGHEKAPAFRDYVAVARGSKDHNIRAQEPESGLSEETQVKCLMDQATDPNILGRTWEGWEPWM

[8] = target: T3, Dual specificity tyrosine-phosphorylation-regulated kinase 2 (Homo sapiens) (UniProt Q92630); assay: Inhibition of human DYRK2 by radiometric assay
T3 sequence (whole entry): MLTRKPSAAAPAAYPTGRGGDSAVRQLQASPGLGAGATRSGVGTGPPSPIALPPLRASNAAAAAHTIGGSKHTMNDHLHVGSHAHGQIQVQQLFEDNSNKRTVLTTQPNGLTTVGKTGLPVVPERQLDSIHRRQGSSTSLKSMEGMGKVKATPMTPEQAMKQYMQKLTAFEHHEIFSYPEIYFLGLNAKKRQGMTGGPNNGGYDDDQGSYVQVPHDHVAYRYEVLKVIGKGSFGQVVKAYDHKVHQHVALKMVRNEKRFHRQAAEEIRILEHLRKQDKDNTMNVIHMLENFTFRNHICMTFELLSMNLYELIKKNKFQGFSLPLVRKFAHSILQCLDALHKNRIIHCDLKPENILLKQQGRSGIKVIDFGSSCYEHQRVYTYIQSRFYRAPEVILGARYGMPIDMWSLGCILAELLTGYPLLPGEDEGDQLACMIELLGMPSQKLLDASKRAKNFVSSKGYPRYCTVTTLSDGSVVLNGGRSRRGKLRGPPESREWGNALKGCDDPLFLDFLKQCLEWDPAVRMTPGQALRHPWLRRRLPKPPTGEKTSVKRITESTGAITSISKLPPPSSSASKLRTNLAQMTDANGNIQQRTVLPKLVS

[9] = target: T1, Serine/threonine-protein kinase PAK 4; conditions: 50 uM
Target sequence in this assay (O96013 whole entry, looked up, the tested form may be a part): as the sequence (O96013 whole entry, looked up, the tested form may be a part) above
Description: Binding affinity to PAK4 (unknown origin) assessed as change in melting temperature at 50 uM by circular dichroism analysis

| ΔTm [1] [°C] | pIC50 [2] | solubility [3] [µM] | inhibition [4] | inhibition [5] | inhibition [6] | inhibition [7] | inhibition [8] | Tm [9] [°C] | Compound |
| --- | --- | --- | --- | --- | --- | --- | --- | --- | --- |
| 16 |  |  |  |  |  |  |  |  | Cc1nc(Nc2n[nH]c3c2CN(C(=O)N[C@H](CN(C)C)c2ccccc2)C3(C)C)c2sccc2n1 |
| 6 |  |  |  |  |  |  |  |  | COc1nc(NCCc2c[nH]c3ccccc23)nc(Nc2ccc3[nH]ncc3c2)n1 |
|  | 5.06 | < 100 | Active | Active | inactive | inactive | inactive | 48 | CC(C)c1nn(C)cc1-c1nc2cc(Br)cnc2[nH]1 |
